Read-outs that look alike come from different tables or passages of the source.
Key:
[1] = test system: cap-dependent translation in rabbit reticulocyte lysate (RRL); conditions: cited from earlier work; for times more potent inhibition than the standard dinucleotide m^7GpppG: pure water without DMSO; for IC50: RRL, water solutions without DMSO, previously determined, read-out: IC50^WATER ± SE
[2] = test system: cap-dependent translation; conditions: 1% DMSO solution; cited from earlier work
human eIF4E (heIF4E) = molecular target: T1, human eIF4E (heIF4E) (Homo sapiens, UniProt P06730); assay: Thermal stabilization of heIF4E by differential scanning fluorimetry (DSF); format: binding; conditions: 1% DMSO; for Relative Change in Affinity to m^7GMP: DSF appK ratio; for Kd: from ΔTm versus ligand concentration, single site ligand binding model, read-out: appK ± SE (apparent affinity to heIF4E)
T1 construct: The thermal stability of human full-length eIF4E (heIF4E) was analyzed; made in house
T1 sequence (P06730 whole entry): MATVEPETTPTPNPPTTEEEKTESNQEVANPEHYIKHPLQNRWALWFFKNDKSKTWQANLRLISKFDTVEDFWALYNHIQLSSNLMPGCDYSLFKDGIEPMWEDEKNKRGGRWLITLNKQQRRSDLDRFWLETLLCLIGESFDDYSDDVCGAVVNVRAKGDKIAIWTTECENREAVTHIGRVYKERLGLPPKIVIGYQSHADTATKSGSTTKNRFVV
Procedure: The thermal stability of human full-length eIF4E (heIF4E) was analyzed using differential scanning fluorimetry (DSF), similar to that described previously for murine eIF4E [30]. heIF4E was expressed and purified as described earlier. The assay sample (20 μL) contained 5× SYPRO Orange (Sigma Aldrich, St. Louis, MO, USA) and 4 μM of heIF4E (final concentration) in HEPES/KOH with 100 mM KCl, 0.5 mM EDTA, and 1 mM DTT (pH 7.2). The tested compounds, as 10× stocks in 10% DMSO, were added to the final concentration at a range from 1 μM to 200 μM. DMSO at a 1% final concentration was then added to the control reactions without any compounds. […] The melting temperature (Tm) was determined as the minimum of the first negative derivative with the built-in CFX Manager Software (Bio-Rad).

[3] = test system: cap-dependent translation in rabbit reticulocyte lysate (RRL); assay: Inhibition of cap-dependent translation of ARCA-capped luciferase mRNA in rabbit reticulocyte lysate (RRL); format: biochemical; conditions: for Inhibition Relative to m^7GMP IC50^DMSO (m^7GMP)/ IC50^DMSO (Cap Analogue) / Inhibition Relative to m^7GpppG IC50^DMSO (m^7GpppG)/ IC50^DMSO (Cap Analogue): 1% DMSO; for IC50: ARCA-capped luciferase mRNA, 1% DMSO final concentration, read-out: IC50^DMSO ± SE
Procedure: To estimate the ability of the newly synthesized double-modified nucleotides to inhibit cap-dependent translation, the […] translation system from rabbit reticulocytes lysate (RRL) was used according to previously described procedures. This procedure was implemented because it mimics the competition between the cap analogue and the mRNA in the all-natural system. Briefly, experiments were performed in a micrococcal nuclease-treated RRL using an in vitro-transcribed, ARCA-capped, β-globin 5′ UTR containing mRNA encoding firefly luciferase to allow for the determination of protein synthesis by luminometry. […] Initially, the compounds were prepared in an aqueous solution containing 10% DMSO, and inhibition was measured at a final concentration of 1% DMSO. Incubations were conducted at several series of inhibitor concentrations in three independent measurement series (Figure 4).
Stock solutions were subsequently used for serial dilutions (in 10% DMSO). […] Experiments of the inhibition of the cap-dependent translation in rabbit reticulocyte lysate (Flexi RRL System, Promega) were performed as previously described. […] Next, 1.25 μL of the tested compound (as a solution in 10% DMSO) and m2^7,3′OGpppG-capped luciferase mRNA (to a final concentration of 5 ng/μL) was added to the reaction, and the translation mixture (12.5 μL final volume) was incubated for an additional 60 min. As a reference, reactions with DMSO (1.25 μL of 10% solution) were prepared. The reactions were stopped by chilling on ice, and the luciferase activity was determined in a Glomax luminometer (Promega). The IC50 values were obtained by fitting to the experimental data a theoretical curve that describes the extent of inhibition as a function of competitive inhibitor (e.g., cap analogue) concentration.

Solubility in water = format: physicochemical
[4] = listed as (4-(diOCH3-bn)-tz-CH2)2bn^7GpppG (4)

## Nc1nc2c(ncn2[C@@H]2O[C@H](COP(=O)(O)OP(=O)(O)OP(=O)(O)OC[C@H]3O[C@@H](n4c[n+](Cc5ccccc5)c5c(=O)[nH]c(N)nc54)[C@H](O)[C@@H]3O)[C@@H](O)[C@H]2O)c(=O)[nH]1 [bn^7GpppG]
[1]
  times more potent inhibition than the standard dinucleotide m^7GpppG: approximately 1.5

## Nc1nc2c(c(=O)[nH]1)[n+](Cc1ccccc1)cn2[C@@H]1O[C@H](COP(=O)([O-])O)[C@@H](O)[C@H]1O [compound 1, 7-benzylguanosine monophosphate]
[2]
  inhibitory properties compared to m^7GMP (times better): 1.5

## COc1cccc(OC)c1OCCCn1cc(CNc2nc3c(c(=O)[nH]2)[n+](C)cn3[C@@H]2O[C@H](COP(=O)([O-])O)[C@@H](O)[C@H]2O)nn1 [compound 2, (4-(diOCH3-bn)-tz-CH2)2m^7GMP]
Human eIF4E (heIF4E)
  Relative Change in Affinity to m^7GMP: 1.8
Human eIF4E (heIF4E); DSF
  Kd: 13.3 ± 3.45 µM
[3]
  Inhibition Relative to m^7GMP IC50^DMSO (m^7GMP)/ IC50^DMSO (Cap Analogue): 10.67
  Inhibition Relative to m^7GpppG IC50^DMSO (m^7GpppG)/ IC50^DMSO (Cap Analogue): 2.47
  IC50: 1.8 ± 0.21 µM
[1]
  IC50: 2 ± 0.1 µM

## COc1cccc(OC)c1OCCCn1cc(CNc2nc3c(c(=O)[nH]2)[n+](Cc2ccccc2)cn3[C@@H]2O[C@H](COP(=O)([O-])O)[C@@H](O)[C@H]2O)nn1 [compound 3]
Human eIF4E (heIF4E)
  Relative Change in Affinity to m^7GMP: 1.7
Human eIF4E (heIF4E); DSF
  Kd: 14.7 ± 1.14 µM
[3]
  Inhibition Relative to m^7GMP IC50^DMSO (m^7GMP)/ IC50^DMSO (Cap Analogue): 7.11
  Inhibition Relative to m^7GpppG IC50^DMSO (m^7GpppG)/ IC50^DMSO (Cap Analogue): 1.64
  IC50: 2.7 ± 0.3 µM
Solubility in water
  solubility in water: only partially soluble in water

## COc1cccc(OC)c1OCCCn1cc(CNc2nc3c(c(=O)[nH]2)[n+](Cc2ccccc2)cn3[C@@H]2O[C@H](COP(=O)(O)OP(=O)([O-])OP(=O)(O)OC[C@H]3O[C@@H](n4cnc5c(=O)[nH]c(N)nc54)[C@H](O)[C@@H]3O)[C@@H](O)[C@H]2O)nn1 [compound 4]
Human eIF4E (heIF4E); [4]
  Relative Change in Affinity to m^7GMP: 6.8
Human eIF4E (heIF4E); DSF, below a 10 μM final concentration
  ΔTm of heIF4E: ~ 10 °C
Human eIF4E (heIF4E); DSF
  Kd: 3.58 ± 1.09 µM
[3]
  Inhibition Relative to m^7GMP IC50^DMSO (m^7GMP)/ IC50^DMSO (Cap Analogue): 80.08
  Inhibition Relative to m^7GpppG IC50^DMSO (m^7GpppG)/ IC50^DMSO (Cap Analogue): ~18
  IC50: 0.24 ± 0.02 µM
[3]; [4]
  Inhibition Relative to m^7GpppG IC50^DMSO (m^7GpppG)/ IC50^DMSO (Cap Analogue): 18.54

## Cn1c[n+]([C@@H]2O[C@H](COP(=O)(O)O)[C@@H](O)[C@H]2O)c2nc(N)[nH]c(=O)c21 [m^7GMP]
[3]
  IC50: 19.2 ± 3.31 µM
[1]
  IC50: > 50 µM

## Cn1c[n+]([C@@H]2O[C@H](COP(=O)([O-])OP(=O)(O)OP(=O)(O)O)[C@@H](O)[C@H]2O)c2nc(N)[nH]c(=O)c21 [m^7GTP]
[3]
  IC50: 1.09 ± 0.14 µM
[1]
  IC50: 2.3 ± 0.2 µM

## Cn1c[n+]([C@@H]2O[C@H](COP(=O)(O)OP(=O)([O-])OP(=O)(O)OC[C@H]3O[C@@H](n4cnc5c(=O)[nH]c(N)nc54)[C@H](O)[C@@H]3O)[C@@H](O)[C@H]2O)c2nc(N)[nH]c(=O)c21 [m^7GpppG]
[3]
  IC50: 4.45 ± 0.61 µM
[1]
  IC50: 8.6 ± 0.7 µM

## (4-(diOCH3-bn)-tz-CH2)^2m^7GpppG
[1]
  times more potent inhibition than the standard dinucleotide m^7GpppG: ~6.9

Source: publication PMC11123931, “The Synergistic Effect of N2 and N7 Modifications on the Inhibitory Efficacy of mRNA Cap Analogues” (Pharmaceuticals, 2024)
